Source: US6392055B1, “Synthesis and biological evaluation of analogs of the antimitotic marine natural product curacin A” (The University of Pittsburgh, priority 2000, dated 2002)
Read-outs that look alike come from different tables or passages of the source.

Assays:
[1] = test system: MDA-MB231 cells; assay: Growth inhibition of breast carcinoma cells (MTS); type: cell-based, human
[2] = test system: 2008 cells; assay: Growth inhibition of ovarian carcinoma cells (MTS); type: cell-based, human
[3] = test system: PC-3 cells; assay: Growth inhibition of prostate carcinoma cells (MTS); type: cell-based, human
[4] = target: tubulin (colchicine site); assay: Inhibition of [3H]colchicine binding to tubulin; parameters: species or system bovine; conditions: for IC50: 5 μM [3H]colchicine, 1 μM tubulin; for Percent Colchicine Binding Inhibition (CBI), 1 μM: 1 μM compound; for Percent Colchicine Binding Inhibition (CBI), 5 μM / % CBI 5 μM, (30° C.) / % CBI 5 μM, 37° C.: 5 μM compound; for Percent Colchicine Binding Inhibition (CBI), 50 μM / % CBI 50 μM, (30° C.) / % CBI 50 μM, 37° C.: 50 μM compound; for % CBI 5 μM, (30° C.) / % CBI 50 μM, (30° C.): 30° C. (values in parentheses)
Procedure: Assays to determine whether 15mix-17mix inhibited binding of [^3H]colchicine to tubulin at both 30° C. and 37° C. were performed. This was accomplished using methods described previously. Kang, G.-J.; Getahun, Z.; Muzaffar, A.; Brossi, A.; Hamel, E. J. Biol. Chem. 1990, 265, 10255; Verdier-Pinard, P.; Lai, J.-Y.; Yoo, H.-D.; Yu, J.; Marquez, B.; Nagle, D. G.; Nambu, M.; White, J. D.; Falck, J. R.; Gerwick, W. H.; Day, B. W.; Hamel, E. Mol. Pharmacol. 1998, 53, 62. Briefly, 5 μM [^3H]colchicine (2.3 TBq/mmol), drug (1, 5, 10, 50, or 250 μM), or vehicle (DMSO, 5% v/v) were incubated at 30° C. for 15 minutes or at 37° C. for 10 minutes with 1 μM tubulin in the presence of 1 M monosodium glutamate, 0.1 M glucose-1-phosphate, 1 mM MgCl2, 1 mM GTP, and 0.5 mg/mL bovine serum albumin. The solutions were filtered through two stacks of DEAE-cellulose filters and the radioactivity in the filtrate was determined by scintillation spectrometry. Each series of determinations included positive controls of 1, 5, and/or 50 μM curacin A.

[5] = test system: isolated bovine brain tubulin; assay: Inhibition of GTP/glutamate-induced tubulin polymerization (turbidimetric, 30° C.); type: biochemical; conditions: for Percent Tubulin Polymerization Inhibition (TPI), 5 μM / % TPI 5 μM: 5 μM compound
[6] = 96 h, Table II prints no unit, read-out: GI50 MDA 96 h
[7] = read-out: GI50 MDA 48 h, 48 h, Table II prints no unit
[8] = 96 h, Table II prints no unit, read-out: GI50 2008 96 h
[9] = read-out: GI50 2008 48 h, 48 h, Table II prints no unit
[10] = 96 h, Table II prints no unit, read-out: GI50 PC3 96 h
[11] = read-out: GI50 PC3 48 h, 48 h, Table II prints no unit
[12] = 96 h, read-out: GI50 MDA-MB231 (breast) 96 h
[13] = read-out: GI50 MDA-MB231 (breast) 48 h, 48 h
[14] = 96 h, read-out: GI50 2008 (ovarian) 96 h
[15] = read-out: GI50 2008 (ovarian) 48 h, 48 h
[16] = 96 h, read-out: GI50 PC3 (prostate) 96 h
[17] = read-out: GI50 PC3 (prostate) 48 h, 48 h

Compound | GI50 [1, 6] [µM] | GI50 [1, 7] [µM] | GI50 [2, 8] [µM] | GI50 [2, 9] [µM] | GI50 [3, 10] [µM] | GI50 [3, 11] [µM] | Percent Colchicine Binding Inhibition (CBI), 1 μM [4] [%] | Percent Colchicine Binding Inhibition (CBI), 5 μM [4] [%] | Percent Colchicine Binding Inhibition (CBI), 50 μM [4] [%] | Percent Tubulin Polymerization Inhibition (TPI), 5 μM [5] [%] | also measured
COc1cc(C=CCCC=CC=C(C)CCC(O)c2ccco2)cc(OC)c1OC (stereo not shown) [Compound 17a, (4E,1E,10Z)-11-(3,4,5-Trimethoxyphenyl)-4-methyl-1-furan-2-ylundeca-4,6,10-trien-1-ol] | – | – | – | – | – | – | – | – | – | – | GI50 ([1]; Homo sapiens, MDA-MB-231, 48 h, read-out: GI50 MDA-MB231 (48 h)): 0.69 ± 0.1 µM; GI50 ([2]; Homo sapiens, Ovarian carcinoma cell, 48 h, read-out: GI50 2008 (48 h)): 2.7 ± 1 µM; GI50 ([3]; Homo sapiens, PC-3, 48 h, read-out: GI50 PC-3 (48 h)): 8 ± 4 µM; IC50 ([4]; incubation at 30° C. for 15 minutes, read-out: 50% Colchicine Binding Inhibitory Concentration (CBI), 30° C.): 32 ± 4 µM; IC50 ([4]; incubation at 37° C. for 10 minutes, read-out: 50% Colchicine Binding Inhibitory Concentration (CBI), 37° C.): 9 ± 6 µM; IC50 ([5]; read-out: 50% Tubulin Polymerization Inhibition Concentration (TPI) IC50, 30° C., 10 μM tubulin): 0.9 µM
COc1ccc(/C=C\CC/C=C/C=C(\C)CCC(O)c2cc3ccccc3s2)c(OC)c1 (stereo not shown) [Compound 19AR4] | 18.6 ± 3 | > 50 | 26.9 ± 3 | 29.8 ± 1.4 | > 50 | > 50 | 1.4 ± 18.5 | −41.0 ± 17.8 | −26.4 ± 14.7 | 60.5 | –
COc1ccc(/C=C\CC/C=C/C=C(\C)CCC(O)c2ccccc2OC)c(OC)c1 (stereo not shown) [Compound 19AR5] | 15.3 ± 9.8 | > 50 | 24.2 ± 3.9 | 30.8 ± 8.7 | > 50 | > 50 | −3.4 ± 3.2 | −17.4 ± 7.9 | −26.1 ± 11.5 | 34.2 | –
C=CC[C@@H](CC[C@@]1(C)C[C@H]1[C@H]1C[C@@H]1CC/C=C\[C@@H]1COC([C@@H]2C[C@@H]2C)=N1)OC [JRCPOX] | – | – | – | – | – | – | – | – | – | – | GI50 [1, 12]: 24 µM; GI50 [1, 13]: 18 ± 4 µM; GI50 [2, 14]: 23 ± 1 µM; GI50 [2, 15]: 18 ± 4 µM; GI50 [3, 16]: 24 ± 1 µM; GI50 [3, 17]: 49 ± 1 µM; % CBI 5 μM, (30° C.) [4]: (−142 ± 59) %; % CBI 5 μM, 37° C. [4]: −8 ± 11%; % CBI 50 μM, (30° C.) [4]: (−205 ± 17) %; % CBI 50 μM, 37° C. [4]: −74 ± 19%; % TPI 5 μM [5]: 83%
C=CC[C@@H](CC/C(C)=C/C=C/CC/C=C\c1coc(C(C)(C)C)n1)OC [JRC2] | – | – | – | – | – | – | – | – | – | – | GI50 [1, 12]: > 50 µM; GI50 [1, 13]: 36 ± 22 µM; GI50 [2, 14]: > 50 µM; GI50 [2, 15]: > 50 µM; GI50 [3, 16]: > 50 µM; GI50 [3, 17]: > 50 µM; % CBI 5 μM, (30° C.) [4]: (7 ± 5) %; % CBI 5 μM, 37° C. [4]: 0 ± 17%; % CBI 50 μM, (30° C.) [4]: (7 ± 6) %; % CBI 50 μM, 37° C. [4]: −52 ± 14%; % TPI 5 μM [5]: 51%
COc1ccc(/C=C\CC/C=C/C=C(\C)CCC(O)c2cc(OC)ccc2OC)c(OC)c1 (stereo not shown) [Compound 19AR6] | 18.3 ± 13.6 | 39.3 ± 11.3 | 32.9 ± 3.7 | 35.2 ± 2.4 | > 50 | > 50 | 1.7 ± 13.9 | −6.8 ± 13.1 | −22.8 ± 8.9 | 31.2 | –
COc1ccccc1C(O)CC/C(C)=C/C=C/CC/C=C\c1cc(OC)c(OC)c(OC)c1 (stereo not shown) [Compound 19CR5] | 0.204 ± 0.046 | 0.086 ± 0.146 | 0.199 ± 0.036 | 0.204 ± 0.112 | 1.12 ± 0.04 | 0.596 ± 1.25 | – | 12.5 ± 8.1 | 68.7 ± 1.1 | 74.6 | –
